Earlier results, collected in patent US10332616B2, “Movable type method applied to protein-ligand binding” (University of Florida Research Foundation, Inc., priority 2013, dated 2019).

Conditions: experimental solvation free energy, neutral compounds test set

SMILES | Exp. ΔGsolv [kcal/mol]
CCO [Compound 0045eth] | -5.01
OCCO [Compound 0046eth] | -9.3
CCCO [Compound 0047pro] | -4.83
CC(C)O [Compound 0048pro] | -1.76
OC1CCCC1 [Compound 0051cyc] | -5.49
CCCCCO [Compound 0052pen] | -4.47
Oc1ccccc1 [Compound 0053phe] | -6.62
CCCCCCO [Compound 0054hex] | -4.36
Cc1ccccc1O [Compound 0055ocr] | -5.87
Cc1cccc(O)c1 [Compound 0056mcr] | -5.49
CCCCCCCO [Compound 0058hep] | -4.24
COC [Compound 0060dim] | -1.92
C1CCOC1 [Compound 0061tet] | -3.47
C1COCCO1 [Compound 0062dio] | -5.05
CCOCC [Compound 0063die] | -1.76
CCCOC [Compound 0064met] | -1.66
COC(C)C [Compound 0065met] | -2.01
COC(C)(C)C [Compound 0067but] | -2.21
COc1ccccc1 [Compound 0068ani] | -2.45
CCCC=O [Compound 0072but] | -3.18
CCCCC=O [Compound 0073pen] | -3.03

SMILES | Exp. ΔGsolv [kcal/mol]
O=Cc1ccccc1 [Compound 0074ben] | -4.02
CC(=O)O [Compound 0086eth] | -6.7
CCC(=O)O [Compound 0087pro] | -6.47
CCCC(=O)O [Compound 0088but] | -6.36
CCCCC(=O)O [Compound 0089pen] | -6.16
CCCCCC(=O)O [Compound 0090hex] | -6.21
COC=O [Compound 0091met] | -2.78
CCOC=O [Compound 0092ethb] | -2.65
COC(C)=O [Compound 0093met] | -3.32
CCC(=O)OC [Compound 0094met] | -2.93
CCOC(C)=O [Compound 0095eth] | -3.1
CCCC(=O)OC [Compound 0096met] | -2.83
CCCOC(C)=O [Compound 0097pro] | -2.86
CCCCC(=O)OC [Compound 0098met] | -2.57
CCN [Compound 0103eth] | -4.5
CNC [Compound 0104dim] | -4.29
C1CNC1 [Compound 0105aze] | -5.56
CN(C)C [Compound 0107tri] | -3.23
C1CCNC1 [Compound 0108pyr] | -5.48
C1CNCCN1 [Compound 0109pip] | -7.4
CCCCN [Compound 0110but] | -4.29

SMILES | Exp. ΔGsolv [kcal/mol]
CN1CCNCC1 [Compound 0112Nme] | -7.77
CCCCCN [Compound 0113pen] | -4.1
CN1CCN(C)CC1 [Compound 0114NNd] | -7.58
CCCNCCC [Compound 0115dip] | -3.66
Nc1ccccc1 [Compound 0118ani] | -5.49
CS [Compound 0136met] | -1.24
CCS [Compound 0137ethb] | -1.3
CCCS [Compound 0138pro] | -1.05
Sc1ccccc1 [Compound 0139thi] | -2.55
CSC [Compound 0140dim] | -1.54
CCSCC [Compound 0142die] | -1.43
CCCSCCC [Compound 0143dip] | -1.27
CSc1ccccc1 [Compound 0144thi] | -2.73
C=CCO [Compound 0145pro] | -5.08
COCCO [Compound 0146met] | -6.77
COCCN [Compound 0147met] | -6.55
C1COCCN1 [Compound 0149mor] | -7.17
O=Cc1cccc(O)c1 [Compound 0150mhy] | -9.51
O=Cc1ccc(O)cc1 [Compound 0151phy] | -10.48

Same assay, conditions: experimental solvation free energy; test set with 372 neutral compounds

SMILES | Exp. ΔGsolv [kcal/mol]
C [Compound 0001met] | 2
CCC [Compound 0003pro] | 1.96
CCCC [Compound 0004nbu] | 2.08
CCCCCC [Compound 0006nhe] | 2.49
CCCCCCC [Compound 0007nhe] | 2.62
CCCCCCCC [Compound 0008noc] | 2.89
CC(C)C [Compound 0010met] | 2.32
CC(C)(C)C [Compound 0011dim] | 2.5
CCCC(C)C [Compound 0012met] | 2.52
CC(C)CC(C)C [Compound 0013dim] | 2.88
C1CC1 [Compound 0016cyc] | 0.75
C1CCCC1 [Compound 0017cyc] | 1.2
C1CCCCC1 [Compound 0018cyc] | 1.23
CC1CCCCC1 [Compound 0019met] | 1.71
C[C@@H]1CCCC[C@@H]1C [Compound 0020cis] | 1.58
C=C [Compound 0021eth] | 1.27
C=CC [Compound 0022pro] | 1.27
C=CC=C [Compound 0023str] | 0.61
C=C(C)C [Compound 0024met] | 1.16
C=CCC [Compound 0025buta] | 1.38
C1=CCCC1 [Compound 0026cyc] | 0.56
C=CCCC [Compound 0027pen] | 1.66
C/C=C/CC [Compound 0028Epe] | 1.34

SMILES | Exp. ΔGsolv [kcal/mol]
C=CCCCC [Compound 0029hex] | 1.68
C#C [Compound 0030eth] | -0.01
C#CC [Compound 0031pro] | -0.31
C#CCC [Compound 0032but] | -0.16
C#CCCCC [Compound 0034hex] | 0.29
c1ccccc1 [Compound 0035ben] | -0.87
Cc1ccccc1 [Compound 0036tol] | -0.89
CCc1ccccc1 [Compound 0037eth] | -0.8
Cc1ccccc1C [Compound 0038oxy] | -0.9
Cc1cccc(C)c1 [Compound 0039mxy] | -0.84
Cc1ccc(C)cc1 [Compound 0040pxy] | -0.81
c1ccc2ccccc2c1 [Compound 0041nap] | -2.39
c1ccc2cc3ccccc3cc2c1 [Compound 0042ant] | -4.23
CC(C)=O [Compound 0075pro] | -3.85
CCC(C)=O [Compound 0076but] | -3.64
O=C1CCCC1 [Compound 0077cyc] | -4.68
CCCC(C)=O [Compound 0078pen] | -3.53
CCC(=O)CC [Compound 0079pen] | -3.41
CCCCC(C)=O [Compound 0080hex] | -3.29
CC(=O)C(C)(C)C [Compound 0081dim] | -2.89
CCCC(=O)CCC [Compound 0083hep] | -2.93
CC(=O)c1ccccc1 [Compound 0084met] | -4.58
c1ccncc1 [Compound 0116pyr] | -4.7

SMILES | Exp. ΔGsolv [kcal/mol]
Cc1cnccn1 [Compound 0117met] | -5.57
Cc1ccccn1 [Compound 0119met] | -4.63
Cc1cccnc1 [Compound 0120met] | -4.77
Cc1ccncc1 [Compound 0121met] | -4.94
CNc1ccccc1 [Compound 0122Nme] | -4.68
Cc1ccnc(C)c1 [Compound 0123dim] | -4.86
Cc1cccc(C)n1 [Compound 0125dim] | -4.6
CC#N [Compound 0126eth] | -3.89
CCC#N [Compound 0127pro] | -3.85
CCCC#N [Compound 0128butb] | -3.64
N#Cc1ccccc1 [Compound 0129ben] | -4.1
CC[N+](=O)[O-] [Compound 0130nit] | -3.71
CCC[N+](=O)[O-] [Compound 0131nit] | -3.34
CC(C)[N+](=O)[O-] [Compound 0132nit] | -3.14
CCCC[N+](=O)[O-] [Compound 0133nit] | -3.08
Cc1ccccc1[N+](=O)[O-] [Compound 0135met] | -3.59
C#CC=C [Compound 0148but] | 0.04
CC(F)F [Compound 0154dif] | -0.11
ClCCl [Compound 0161dic] | -1.36
ClC(Cl)Cl [Compound 0162tri] | -1.07
CCCl [Compound 0163chl] | -0.63
CC(Cl)(Cl)Cl [Compound 0165tri] | -0.25
